Source: US6482609B1, “Isolated human EDG-4 receptor and polynucletide encoding said receptor” (priority 1997, dated 2002)

How the values were obtained:
[1] = test system: Human Umbilical Vein Endothelial Cells (HUVEC); assay: IL-8 ELISA on primary cultured HUVEC treated with lysolipids; type: cell-based; settings: 5 μM, 6 hr
Protocol: Plating, Pretreatment and Treatment of HUVEC
Procedures were followed as detailed above in “Procedure #1 for HeLa Cells” with the following exceptions:
Cells were plated at 20,000 cells/well into 24-well plates. The next day, cells were serum-starved overnight in EBM medium (Clonetics) with 0.5% FBS, and then treated in EBM without FBS for 6 hr with the following lysolipids:
Supematants were collected and IL-8 levels were deternined using ELISA as described previously.

HL-60 cells = assay: IL-8 ELISA on HL-60 cells; type: cell-based, human; settings: 1, 6 or 24 hr, S1P or LPA up to 3 μM, TNF-α 10 ng/ml
Protocol: Procedure for HL-60 Cells:
Cells: HL-60 (promyelocytic, human) suspension cells
Media: RPMI 1640 medium with 2 mM L-glutamine adjusted to contain 4.5 g/L glucose, 10 mM HEPES, and 1.0 mM sodium pyruvate+10% FBS
1) Cells were plated at a density of 0.25×10^6 cells/ml.
2) Cell pellcts were resuspended in 0.5% FBS media at a density of approximately 1×10^6 cells/ml.
1) Made up all required solutions in 0.5% FBS media (control).
2) 1.4 ml appropriate treatments were added to each well of a 6-well plate.
5) 100 μl cell suspension was added to each well.
7) After the specified time cell supematants were collected into 1.5 ml eppendorf tubes, spun down at 14000 rpm for 5 minutes and stored at −20° C.
D. Refer to Procedure #1 For HeLa Cells (D).

293-EBNA cells = assay: IL-8 production in untransfected 293-EBNA cells; type: cell-based
[2] = test system: 293-EBNA cells transfected with empty expression vector pcDNA3; assay: NF-κB luciferase reporter in 293-EBNA cells, empty vector pcDNA3; type: cell-based; settings: pcDNA3; 10 μM LPA; overnight
Protocol: Monolayer Transient Transfection Protocol for 293-EBNA
2) 6.6 μg NF-κB-tk-p4Luc reporter DNA and 6.6 μg of pC3-redg4 (expressing rat EDG-4), or pcDNA3 DNA was diluted in 500 μl OPTI-MEM (Gibco; Cat. 31985-062)
2) After 6 hrs, media was removed and cells treated with compounds diluted in 0.5% FBS media (140 μl added to each well).
3) Cells were treated for 24 hrs.
1) Luclite kit (Packard; Cat. 6016911) was used for luciferase assay. All reagents were brought to room temperature before use.
7) After incubation, plates were counted in a 12-detector Packard Top Count on a program without dark delay.
(§1) The above protocol for assay 1 was followed except for the following changes:
(§2) 2) 3 μg NFκB-tk-p4Luc reporter DNA and 3 μg pC3-hedg1, pC3-hedg3, pC3-redg4, pC3-hedg5 or pcDNA3 DNA was diluted in 240 μl OPTI-MEM (Gibco; Cat. 31985-062)
(§3) 2) SRE Cotransfection: 0.5 μg of 2XSREtk-p4Luc-zeo reporter DNA and 3.5 μg pcDNA3, EDG-1, EDG-3 (pC3-hE3HP2, different from the clone used in Assay 2 of Example 11) or the newly cloned human EDG-4 (pC3-hedg4#36); NF-κB Cotransfection: 2 μg 6XNFκBtk-p4Luc-zeo reporter DNA and 2.0 μg pcDNA3, EDG-1, EDG-3 (pC3-hE3HP2), or EDG-4 (pC3-hedg4#36). Expression plasmid and reporter plasmid DNA samples were combined and diluted in 750 μl of DMEM/F12 (serum free media) and 20 μl Plus Reagent (Lipofectamine Plus Kit, Life Technologies Cat. 10964-013), and incubated at room temperature for 15 min.
(§4) 1) Media was removed and cells treated with compounds diluted in DMEM/F12 media.
(§5) 2) The cells were treated for 6 hours.
(§6) 293-EBNA cells were grown, lipofected in monolayer cultures, and pretreated as described above for Example 11, assay #1, except that NF-κB and AP-1 reporter-transfected cells were pretreated for 6 hr in medium containing 0.5% FBS, then treated overnight in the same medium with or without 10 μM LPA.

EDG-5 [3] = target: T1, EDG-5 (Homo sapiens, UniProt Q9UBY5); assay: NF-κB luciferase reporter in 293-EBNA cells, EDG-5; type: cell-based; settings: 10 μM LPA, overnight
T1 construct: expressed in transfected cells; host or cells: 293-EBNA
T1 sequence (Q9UBY5 1-353): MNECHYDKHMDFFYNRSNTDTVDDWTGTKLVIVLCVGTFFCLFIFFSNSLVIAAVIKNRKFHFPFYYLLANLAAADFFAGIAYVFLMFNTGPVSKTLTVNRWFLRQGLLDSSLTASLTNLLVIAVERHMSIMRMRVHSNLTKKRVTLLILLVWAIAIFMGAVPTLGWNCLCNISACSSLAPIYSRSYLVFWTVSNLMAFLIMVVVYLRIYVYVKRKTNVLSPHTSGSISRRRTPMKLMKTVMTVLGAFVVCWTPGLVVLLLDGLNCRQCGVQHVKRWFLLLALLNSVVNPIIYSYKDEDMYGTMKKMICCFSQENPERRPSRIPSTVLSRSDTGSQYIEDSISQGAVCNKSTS
Protocol: Transient Transfection Protocol for 293-EBNA
as §1, §2
1) 0.01×10^6 cells were plated per well of a 96-well Blackview plate coated with polyD-lysine. No cells were plated in the outside wells of the 96-well plate.
LPA, like S1P, is abundant in serun, but not plasma. Moreover, LPA is produced as a consequence of phospholipase A2 with or without the contribution of phospholipase D (depending on the phospholipid substrate). […] To date we have identified three subtypes of edg receptors that respond to LPA as an agonist. These are EDG-2, EDG-6 and EDG-5 (referred to also as LPA1, LPA2 and LPA3, respectively (Chun, J, Contos, J J A and Munroe, D G. 1998. A growing family of receptor genes for lysophosphatidic acid (LPA) and other lyso-phospholipids. Cell Biochem Biophys (in press)). The EDG-5 receptor is set out in co-pending U.S. application Ser. No. 08/997,803 to MLUNROE et al., incorporated herein by reference and the amino acid sequence and cDNA sequence for the EDG-6 receptor is set out in FIGS. 21 and 22, respectively. To determine whether these receptors might mediate inflammatory responses, each was cotransfected separately with SRE, NF-κB or AP-1 reporter genes. […]

[4] = test system: 293-EBNA cells transfected with empty expression vector pcDNA3; assay: SRE luciferase reporter in 293-EBNA cells, empty vector pcDNA3; type: cell-based; settings: 10 μM LPA
Protocol: NE-κB activates gene expression by binding to specific DNA sequences found in the promoters of genes regulated by this inflammation-related transcription factor. […] The SRE reporter was identical to the NF-κB reporter, except that the NF-κB binding sites were replaced with 2 SRE sites. The new reporter was called 2XSREtk-p4Luc-zeo.
The protocol described in Example 11 for Assay 1 was followed except for the following changes:
as §3, §4, §5
Transfection was accomplished using the Lipofectamine Plus kit (Life Technologies, Cat. 10964-013), using the manufacturer's recommended conditions.
as §6

EDG-2 [5] = target: T2, EDG-2 (Homo sapiens, UniProt Q92633); assay: NF-κB reporter in 293-EBNA cells, EDG-2; type: cell-based; settings: 10 μM LPA, overnight
T2 construct: expressed in transfected cells; host or cells: 293-EBNA
T2 sequence (Q92633 whole entry): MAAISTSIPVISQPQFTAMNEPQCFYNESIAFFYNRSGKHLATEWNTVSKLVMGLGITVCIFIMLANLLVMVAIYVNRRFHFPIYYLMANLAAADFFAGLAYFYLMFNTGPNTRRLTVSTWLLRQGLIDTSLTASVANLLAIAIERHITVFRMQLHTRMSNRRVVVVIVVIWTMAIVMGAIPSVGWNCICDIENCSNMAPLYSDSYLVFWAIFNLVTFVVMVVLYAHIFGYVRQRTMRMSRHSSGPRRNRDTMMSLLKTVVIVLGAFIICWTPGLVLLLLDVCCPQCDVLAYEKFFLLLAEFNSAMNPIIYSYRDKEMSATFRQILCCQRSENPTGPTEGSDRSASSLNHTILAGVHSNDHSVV
Excerpt: (§7) LPA, like S1P, is abundant in serun, but not plasma. Moreover, LPA is produced as a consequence of phospholipase A2 with or without the contribution of phospholipase D (depending on the phospholipid substrate). […] To date we have identified three subtypes of edg receptors that respond to LPA as an agonist. These are EDG-2, EDG-6 and EDG-5 (referred to also as LPA1, LPA2 and LPA3, respectively (Chun, J, Contos, J J A and Munroe, D G. 1998. A growing family of receptor genes for lysophosphatidic acid (LPA) and other lyso-phospholipids. Cell Biochem Biophys (in press)). The EDG-5 receptor is set out in co-pending U.S. application Ser. No. 08/997,803 to MLUNROE et al., incorporated herein by reference and the amino acid sequence and cDNA sequence for the EDG-6 receptor is set out in FIGS. 21 and 22, respectively. To determine whether these receptors might mediate inflammatory responses, each was cotransfected separately with SRE, NF-κB or AP-1 reporter genes. […] This transcription factor, like NF-κB has been implicated in inflammatory and neoplastic signal transduction., though the gene targets of its action are largely distinct from those of NF-κB (Adcock IM. 1997. Transcription factors as activators of gene transcription: AP-1 and NF-κB. Monaldi Arch Chest Dis 52:178-186. Review). […]

EDG-6 [6] = assay: NF-κB reporter in 293-EBNA cells, EDG-6; type: cell-based, human; settings: 10 μM LPA, overnight
Excerpt: as §7
Target sequence in this assay (Q9HBW0 1-340 limits assumed): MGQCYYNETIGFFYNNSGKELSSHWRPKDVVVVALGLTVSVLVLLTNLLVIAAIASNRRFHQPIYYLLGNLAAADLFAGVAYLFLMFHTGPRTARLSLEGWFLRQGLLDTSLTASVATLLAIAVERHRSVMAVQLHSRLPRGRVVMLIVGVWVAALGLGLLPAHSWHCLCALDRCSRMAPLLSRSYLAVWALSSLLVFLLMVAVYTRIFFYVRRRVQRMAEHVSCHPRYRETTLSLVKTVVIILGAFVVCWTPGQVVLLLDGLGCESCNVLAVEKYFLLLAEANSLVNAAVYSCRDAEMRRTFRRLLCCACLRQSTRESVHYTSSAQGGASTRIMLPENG

EDG-2 [7] = target: T2, EDG-2; assay: SRE reporter in 293-EBNA cells, EDG-2; type: cell-based; settings: 10 μM LPA
Excerpt: as §7

EDG-5 [8] = target: T1, EDG-5; assay: SRE reporter in 293-EBNA cells, EDG-5; type: cell-based; settings: 10 μM LPA
Excerpt: as §7

EDG-6 [9] = assay: SRE reporter in 293-EBNA cells, EDG-6; type: cell-based, human; settings: 10 μM LPA
Excerpt: as §7
Target sequence in this assay (Q9HBW0 1-330 limits assumed): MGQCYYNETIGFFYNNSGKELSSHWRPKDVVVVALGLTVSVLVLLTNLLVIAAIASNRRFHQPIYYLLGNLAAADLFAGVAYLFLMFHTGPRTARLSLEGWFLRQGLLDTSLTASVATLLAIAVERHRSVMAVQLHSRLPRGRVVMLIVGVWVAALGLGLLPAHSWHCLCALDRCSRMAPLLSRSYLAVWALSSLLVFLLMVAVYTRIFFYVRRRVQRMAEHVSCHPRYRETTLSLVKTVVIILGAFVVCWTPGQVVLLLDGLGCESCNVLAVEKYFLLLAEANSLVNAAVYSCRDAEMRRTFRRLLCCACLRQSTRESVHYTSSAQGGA

EDG-2 [10] = target: T2, EDG-2; assay: AP-1 reporter in 293-EBNA cells, EDG-2; type: cell-based; settings: 10 μM LPA
Excerpt: as §7

EDG-5 [11] = target: T1, EDG-5; assay: AP-1 reporter in 293-EBNA cells, EDG-5; type: cell-based; settings: 10 μM LPA
Excerpt: as §7

EDG-6 [12] = assay: AP-1 reporter in 293-EBNA cells, EDG-6; type: cell-based, human; settings: 10 μM LPA
Excerpt: as §7
Target sequence in this assay (Q9HBW0 1-340 limits assumed): as the sequence (Q9HBW0 1-340 limits assumed) above

[13] = test system: 293-EBNA cells transfected with empty expression vector pcDNA3; assay: AP-1 reporter in 293-EBNA cells, empty vector pcDNA3; type: cell-based; settings: 10 μM LPA
Excerpt: as §7

Activation of the NF-κB reporter (EDG-5 [3]): 3-4 fold
Activation of the NF-κB reporter (EDG-2 [5]): 3-4 fold
Induction of the SRE reporter (EDG-2 [7]): greater than 2 fold
Induction of the SRE reporter (EDG-5 [8]): greater than 2 fold
Induction of the AP-1 reporter (EDG-2 [10]): greater than 2 fold
Induction of the AP-1 reporter (EDG-5 [11]): greater than 2 fold
Substance: lysophosphatidic acid [LPA]
IL-8 levels increase over untreated controls [1]: 3 fold
IL-8 release (HL-60 cells): no such release
IL-8 production (293-EBNA cells): no IL-8 production
NF-κB reporter response in control cells [2]: no response to LPA
Endogenous SRE reporter response vs untreated control cells [4]: about 1.5 fold
Activation of the NF-κB reporter (EDG-6 [6]): 3-4 fold
SRE reporter induction (EDG-6 [9]): strongly induced both reporters
AP-1 reporter induction (EDG-6 [12]): strongly induced both reporters
Endogenous AP-1 reporter response vs untreated control cells [13]: about 1.5 fold
